This note sets out measurements from patent publication US20120129831A1, “Substituted 3-(1,2,4-Oxadiazol-5-yl)-5-Phenylpiperidines” (BAYER PHARMA AKTIENGESELLSCHAFT, priority 2009, published 2012).

The experiment has as its target T1, human protease activated receptor 1 (PAR-1) (Homo sapiens, UniProt P25116).
T1 construct: the cell stably expresses the endogenous human PAR-1 receptor and the endogenous purinergic receptor P2Y2; endogenous in cells; host or cells: HEK293-derived recombinant cell line; only the mitochondrial aequorin is recombinant
T1 sequence (P25116 22-425): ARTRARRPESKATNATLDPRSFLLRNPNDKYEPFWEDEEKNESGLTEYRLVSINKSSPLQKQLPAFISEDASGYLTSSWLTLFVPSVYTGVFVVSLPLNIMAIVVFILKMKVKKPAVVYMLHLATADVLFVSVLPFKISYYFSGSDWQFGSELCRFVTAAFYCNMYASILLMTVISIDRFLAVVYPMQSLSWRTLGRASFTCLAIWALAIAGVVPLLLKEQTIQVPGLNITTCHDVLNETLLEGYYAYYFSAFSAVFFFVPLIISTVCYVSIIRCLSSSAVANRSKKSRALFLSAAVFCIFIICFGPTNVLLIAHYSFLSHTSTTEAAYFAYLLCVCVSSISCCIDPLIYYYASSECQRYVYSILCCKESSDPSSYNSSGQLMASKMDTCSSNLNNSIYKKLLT
In words: Cellular functional in vitro test (aequorin luminescence, PAR-1 antagonism). It counts as cell-based. Particulars: recombinant HEK293 aequorin cell line, endogenous human PAR-1; PAR-1 agonist at EC50; calcium luminescence. The source says: A recombinant cell line is used to identify antagonists of the human protease activated receptor 1 (PAR-1) and to quantify the activity of the substances described herein. The cell is originally derived from a human embryonal kidney cell (HEK293; ATCC: American Type Culture Collection, Manassas, Va. 20108, USA). The test cell line constitutively expresses a modified form of the calcium-sensitive photoprotein aequorin which, after reconstitution with the cofactor coelenterazine, emits light when the free calcium concentration in the inner mitochondrial compartment is increased (Rizzuto R, Simpson A W, Brini M, Pozzan T.; Nature 1992, 358, 325-327). Additionally, the cell stably expresses the endogenous human PAR-1 receptor and the endogenous purinergic receptor P2Y2. The resulting PAR-1 test cell responds to stimulation of the endogenous PAR-1 or P2Y2 receptor with an intracellular release of calcium ions, which can be quantified through the resulting aequorin luminescence with a suitable luminometer (Milligan G, Marshall F, Rees S, Trends in Pharmacological Sciences 1996, 17, 235-237). […]
Test procedure: The cells are plated out two days (48 h) before the test in culture medium (DMEM F12, supplemented with 10% FCS, 2 mM glutamine, 20 mM HEPES, 1.4 mM pyruvate, 0.1 mg/ml gentamycin, 0.15% Na bicarbonate; BioWhittaker Cat. #BE04-687Q; B-4800 Verviers, Belgium) in 384-well microtitre plates and kept in a cell incubator (96% atmospheric humidity, 5% v/v CO2, 37° C.). […] The test substances are then pipetted onto the microtitre plate, and 5 minutes after the transfer of the test substances into the wells of the microtitre plate the plate is transferred into the luminometer, a PAR-1 agonist concentration which corresponds to EC50 is added and the resulting light signal is immediately measured in the luminometer. To distinguish an antagonist substance action from a toxic action, the endogenous purinergic receptor is immediately subsequently activated with agonist (ATP, final concentration 10 μM) and the resulting light signal is measured.
For `CCOCCc1noc(C2CC(c3ccc(CC)cc3)CN(C(=O)N3CCC(O)CC3)C2)n1` (single isomer, unassigned) [Example 15, {3-[3-(2-Ethoxyethyl)-1,2,4-oxadiazol-5-yl]-5-(4-ethylphenyl)piperidin-1-yl}(4-hydroxypiperidin-1-yl)methanone], the IC50 came out at 8.6 nM.

For the molecule `COCCc1noc(C2CC(c3ccc(OC(F)(F)F)cc3)CN(C(=O)N3CC(O)C3)C2)n1` (single isomer, unassigned) [Example 9, (3-Hydroxyazetidin-1-yl){3-[3-(2-methoxyethyl)-1,2,4-oxadiazol-5-yl]-5-[4-(trifluoromethoxy)-phenyl]piperidin-1-yl}methanone], the IC50 turned out to be 28 nM.

In the case of `O=C(N1CC(O)C1)N1CC(c2ccc(OC(F)(F)F)cc2)CC(c2nc(C3CC3)no2)C1` (single isomer, unassigned) [Example 7, {3-(3-Cyclopropyl-1,2,4-oxadiazol-5-yl)-5-[4-(trifluoromethoxy)phenyl]piperidin-1-yl}(3-hydroxyazetidin-1-yl)methanone], the IC50 was 34 nM.
